Laboratory results published in patent US20240391931A1 (Bristol-Myers Squibb Company, priority 2021, published 2024).

Key:
NCI-H1781 cells = assay: Cellular proliferation in NCI-H1781 cells (CellTiter Glo); format: cell-based, human; settings: 120 h, redosed after 72 h
Procedure: (§1) In addition to the engineered cell lines, the following cell lines were used: BT474 (human breast carcinoma), N87 (human gastric carcinoma), NCI-H1781 (human lung adenocarcinoma), and A431 (human epidermoid carcinoma); all cell lines were obtained from the American Type Culture Collection (ATCC, Manassas, VA). NCI-H1781 were grown in complete RPMI 1640 (Life Technologies, Carlsbad, CA) supplemented with 15% fetal bovine serum (FBS, Life Technologies, Carlsbad, CA) and 1% Penicillin-Streptomycin (P/S, Life Technologies, Carlsbad, CA). N87 cells were grown in complete RPMI 1640 supplemented with 10% FBS and 1% P/S. BT474 and A431 cells were grown in DMEM (Life Technologies, Carlsbad, CA) supplemented with 10% FBS and 1% P/S. All cells were maintained and propagated in a humidified 5% CO2 incubator at 37° C.
(§2) Cell proliferation in adherent cells was investigated in two HER2 amplified cell lines (BT474, N87), and a HER2VC expressing cell line (NCI-H1781). BT474, NCI-H1781, and N87 were plated in their appropriate growth media supplemented with either 10% FBS (BT474, N87) or 15% FBS (NCI-H1781) and 1% P/S in 96-well white clear-bottom tissue culture plates (Costar, Sigma-Aldrich). The starting cell densities were 3500, 5500, and 5000 cells for BT474, NCI-H1781, and N87 cells, respectively. An 8-point standard curve with varying cell densities (starting at 50000 cells and serially diluting down 2-fold) was prepared for each cell line and read 6 h after plating. Cells were allowed to attach overnight prior to compound treatment. Compound solutions were prepared by serially diluting test compounds in DMSO (Sigma-Aldrich), then diluting 500× in their corresponding serum free media. Cells were treated by adding a 1:1 volume of test compound to a final concentration of […], 0.004, 0.0014, or 0.0005 μM, in 0.1% DMSO and 5% FBS (for BT474 and N87) or 7.5% FBS (NCI-H1781). In BT474 and NCI-H1781, cell media was replaced and cells were redosed with fresh test compound solutions after 72 h. Viability was determined by CellTiter Glo (Promega, Madison, WI) after 72 h for N87 cells, and after 120 h for BT474 and […] cells. The results were converted to cell numbers using a standard curve; growth inhibition (GI50 values) were determined by Graph Pad Prism. […] The results are provided in Table 4, under columns titled “BT474-GI50”, “N87-GI50”, and “NCI-H1781-GI50”.

[1] = target: T1, HER2 wildtype (WT) protein (Homo sapiens, UniProt P04626); assay: HER2 signaling (pHER2 Tyr1248/total HER2 MSD) in N87 cells; format: cell-based; settings: 1.5 hr compound, 1% FBS
T1 construct: BT474 and N87 cell lines which endogenously overexpress the HER2 wildtype (WT) protein; endogenous in cells; host or cells: BT474, N87
T1 sequence (P04626 23-1255): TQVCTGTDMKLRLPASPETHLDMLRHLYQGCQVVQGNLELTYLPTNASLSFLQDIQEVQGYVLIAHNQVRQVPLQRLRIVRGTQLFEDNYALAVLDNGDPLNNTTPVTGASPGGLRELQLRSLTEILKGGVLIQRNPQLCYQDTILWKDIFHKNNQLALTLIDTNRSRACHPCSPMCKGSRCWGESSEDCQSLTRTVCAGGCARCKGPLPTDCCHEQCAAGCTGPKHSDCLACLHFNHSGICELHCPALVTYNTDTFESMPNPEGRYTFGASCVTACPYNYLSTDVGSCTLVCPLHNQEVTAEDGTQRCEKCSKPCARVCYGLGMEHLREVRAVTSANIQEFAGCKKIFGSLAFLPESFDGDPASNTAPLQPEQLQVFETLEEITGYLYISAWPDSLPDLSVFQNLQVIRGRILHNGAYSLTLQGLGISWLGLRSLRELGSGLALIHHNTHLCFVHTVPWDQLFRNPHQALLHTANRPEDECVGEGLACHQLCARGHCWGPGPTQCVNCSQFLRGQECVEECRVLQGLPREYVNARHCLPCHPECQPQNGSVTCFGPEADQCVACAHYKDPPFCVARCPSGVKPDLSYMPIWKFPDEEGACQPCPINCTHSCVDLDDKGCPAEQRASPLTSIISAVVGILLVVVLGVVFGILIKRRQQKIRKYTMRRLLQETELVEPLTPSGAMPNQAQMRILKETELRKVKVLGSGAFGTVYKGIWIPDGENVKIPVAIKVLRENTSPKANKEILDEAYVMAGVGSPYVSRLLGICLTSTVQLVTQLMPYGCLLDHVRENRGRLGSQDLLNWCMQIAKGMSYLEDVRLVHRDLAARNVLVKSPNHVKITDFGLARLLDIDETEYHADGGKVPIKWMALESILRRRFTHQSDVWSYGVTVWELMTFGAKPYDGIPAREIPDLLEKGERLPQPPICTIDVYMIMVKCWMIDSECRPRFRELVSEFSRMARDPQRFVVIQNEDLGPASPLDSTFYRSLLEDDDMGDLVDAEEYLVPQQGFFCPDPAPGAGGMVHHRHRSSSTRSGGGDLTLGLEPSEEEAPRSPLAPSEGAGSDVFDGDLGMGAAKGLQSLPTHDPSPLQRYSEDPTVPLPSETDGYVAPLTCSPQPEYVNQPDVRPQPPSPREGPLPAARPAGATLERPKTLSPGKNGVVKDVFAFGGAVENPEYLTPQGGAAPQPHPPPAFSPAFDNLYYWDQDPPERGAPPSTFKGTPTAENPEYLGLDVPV
Procedure: as §1
(§3) HER2 signaling was assessed in BT474 and N87 cell lines which endogenously overexpress the HER2 wildtype (WT) protein, in NCI-H1781 cells which endogenously expresses a HER2 mutant protein containing a VC insertion in the kinase domain (HER2VC or G776delinsVC), and in engineered cell lines transduced to express the Her2 mutant protein containing the YVMA insertion (Hek293-HER2YVMA and BEAS2B-HER2YVMA).
(§4) BT474, N87, and NCI-H1781 were plated in 96-well tissue-culture treated plates (Corning Costar, Sigma-Aldrich) in full media and incubated overnight. Hek293-HER2YVMA and BEAS2B-HER2YVMA cells were plated in 96-well poly-D-lysine treated plates (BD Bioscience, San Jose, CA). For treatment with test compounds, the media was replaced with corresponding low serum media (1% FBS) containing test compound at 1.1, 0.37, 0.12, 0.041, 0.014, 0.005, 0.0014, 0.0005 μM or DMSO control (0.1%). Cells were incubated with compound for 1.5 hr at 37° C. After compound treatment, the media was removed and cells were lysed for 30 min on ice in complete MSD lysis buffer (prepared using MSD base lysis buffer (Meso-Scale Discovery) supplemented with cOmplete, EDTA-free Protease inhibitor cocktail (Roche), Phosphatase Inhibitor Cocktails 2 and 3 (Sigma-Aldrich), and 1 mM PMSF (Sigma-Aldrich)). Lysates were stored at −70° C. until further analysis.
(§5) HER2 signaling was evaluated using phospho (Tyr1248)/total ErbB2 whole cell lysate MSD plates (Meso-Scale Discovery, Gaithersburg, MD). The phospho HER2 signal was normalized to total HER2 for each sample; results are reported as % DMSO control. The normalized data was fitted using a sigmoidal curve analysis program (Graph Pad Prism version 6) with variable Hill slope to determine EC50 values.
(§6) The HER2 signaling results are provided in Table 4, under columns titled “BT474-pHER2 EC50”, “N87-pHER2 EC50”, and “NCI-H1781-pHER2 EC50”. Hek293-HER2YVMA ins fall under the heading “HEKYVMA-pHER2 EC50”, Ba/F3 HER2YVMA fall under the heading “Ba/F3 YVMA-pHER2 EC50” and BEAS2B-HER2YVMA fall under the heading “BEAS2B YVMA-pHER2 EC50”.

N87 cells = assay: Cellular proliferation in N87 cells (CellTiter Glo); format: cell-based, human; settings: 72 h
Procedure: as §1, §2

[2] = target: T1, HER2 wildtype (WT) protein; assay: HER2 signaling (pHER2 Tyr1248/total HER2 MSD) in BT474 cells; format: cell-based; settings: 1.5 hr compound, 1% FBS
Method in brief: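 BT474, N87 (HER2 WT) and NCI-H1781 (HER2 G776delinsVC) cells were treated for 1.5 h at 37° C in 1% FBS medium with compound at 0.0005–1.1 μM. pHER2 Tyr1248 was measured by MSD on whole-cell lysates and normalized to total HER2 as % DMSO. EC50 came from a variable-slope sigmoidal fit.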

HER2VC (G776delinsVC) = target: T2, HER2VC (G776delinsVC) (Homo sapiens, UniProt P04626, G776C/INS775V); assay: HER2 signaling (pHER2) in NCI-H1781 cells; format: cell-based; settings: 1.5 hr compound, 1% FBS
T2 construct: NCI-H1781 cells which endogenously expresses a HER2 mutant protein; endogenous in cells; host or cells: NCI-H1781
T2 sequence (P04626 with tags, fused parts or gaps INS775V/G776C): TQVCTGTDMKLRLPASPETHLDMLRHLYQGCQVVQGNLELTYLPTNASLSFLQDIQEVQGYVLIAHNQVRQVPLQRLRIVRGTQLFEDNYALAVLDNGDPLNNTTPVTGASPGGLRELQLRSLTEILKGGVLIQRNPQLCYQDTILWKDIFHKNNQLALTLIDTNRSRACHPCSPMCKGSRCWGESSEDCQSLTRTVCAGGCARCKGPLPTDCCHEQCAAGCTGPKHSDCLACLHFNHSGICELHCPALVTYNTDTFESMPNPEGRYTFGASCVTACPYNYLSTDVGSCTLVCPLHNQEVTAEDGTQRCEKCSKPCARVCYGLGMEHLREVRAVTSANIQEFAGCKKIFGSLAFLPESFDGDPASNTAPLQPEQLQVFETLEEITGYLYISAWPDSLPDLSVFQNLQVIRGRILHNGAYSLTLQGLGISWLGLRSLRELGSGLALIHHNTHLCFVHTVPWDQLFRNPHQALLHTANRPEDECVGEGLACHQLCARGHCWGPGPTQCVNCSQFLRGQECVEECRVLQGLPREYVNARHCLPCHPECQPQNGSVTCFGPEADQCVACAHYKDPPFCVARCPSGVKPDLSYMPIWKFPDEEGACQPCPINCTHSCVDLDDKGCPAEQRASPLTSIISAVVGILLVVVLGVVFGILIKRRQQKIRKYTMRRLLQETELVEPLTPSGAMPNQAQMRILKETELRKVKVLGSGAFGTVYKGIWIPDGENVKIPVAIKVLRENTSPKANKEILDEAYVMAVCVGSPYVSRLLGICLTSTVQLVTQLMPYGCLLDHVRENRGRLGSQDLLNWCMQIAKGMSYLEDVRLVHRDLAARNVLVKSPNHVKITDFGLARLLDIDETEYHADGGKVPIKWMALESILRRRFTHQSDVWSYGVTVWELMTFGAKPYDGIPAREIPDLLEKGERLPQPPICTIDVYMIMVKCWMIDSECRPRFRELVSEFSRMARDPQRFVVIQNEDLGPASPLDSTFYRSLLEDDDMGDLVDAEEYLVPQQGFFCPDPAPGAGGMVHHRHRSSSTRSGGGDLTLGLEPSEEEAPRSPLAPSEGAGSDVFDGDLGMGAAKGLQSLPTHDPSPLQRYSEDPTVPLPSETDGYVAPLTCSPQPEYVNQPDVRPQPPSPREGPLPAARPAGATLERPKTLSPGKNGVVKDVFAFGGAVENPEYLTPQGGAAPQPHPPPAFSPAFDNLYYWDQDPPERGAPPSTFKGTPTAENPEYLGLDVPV
Procedure: as §1, §3, §4, §5, §6

BT474 cells = assay: Cellular proliferation in BT474 cells (CellTiter Glo); format: cell-based, human; settings: 120 h, redosed after 72 h
Procedure: as §1, §2

[3] = Homo sapiens, NCI-H1781, NCI-H1781 cells
[4] = Homo sapiens, BT-474, BT474 cells

| SMILES | GI50 (NCI-H1781 cells; [3]) | GI50 (N87 cells; Homo sapiens) | EC50 [2] | EC50 (HER2VC (G776delinsVC)) | GI50 (BT474 cells; [4]) | also measured |
| --- | --- | --- | --- | --- | --- | --- |
| Cc1ccc(Oc2ccc(Nc3ncnc4sc5c(c34)C(C)CN(C(=O)C=CCN(C)C)C5)cc2C)cn1 (single isomer, unassigned) [Compound 105] | < 100 nM | < 100 nM | < 100 nM | < 100 nM | < 100 nM | EC50 [1]: < 100 nM |
| Cc1ccc(Oc2ccc(Nc3ncnc4sc5c(c34)C(C)CN(C(=O)C=CCN(C)C)C5)cc2C)cn1 (single isomer, unassigned) [Compound 106] |  |  | < 100 nM | < 100 nM |  | GI50 (NCI-H1781 cells; NCI-H1781 cells): < 100 nM; EC50 [1]: < 100 nM; GI50 (N87 cells): < 100 nM; GI50 (BT474 cells; BT474 cells): < 100 nM |
| Cc1cc(Nc2ncnc3sc4c(c23)CCN(C(=O)/C=C/CN(C)C)C4)ccc1Oc1ccc2ncnn2c1 [Compound 3, (E)-1-(4-((4-([1,2,4]triazolo[1,5-a]pyridin-6-yloxy)-3-methylphenyl)amino)-5,8-dihydropyrido[4′,3′:4,5]thieno[2,3-d]pyrimidin-7(6H)-yl)-4-(dimethylamino)but-2-en-1-one] |  |  | < 100 nM | < 100 nM |  |  |
| C=CC(=O)N1CCc2c(sc3ncnc(Nc4ccc(Oc5ccc6ncnn6c5)c(Cl)c4)c23)C1 [Compound 4, 1-(4-((4-([1,2,4]triazolo[1,5-a]pyridin-6-yloxy)-3-chlorophenyl)amino)-5,8-dihydropyrido[4′,3′:4,5]thieno[2,3-d]pyrimidin-7(6H)-yl)prop-2-en-1-one] |  |  | < 100 nM | < 100 nM |  |  |
| CN(C)C/C=C/C(=O)N1CCc2c(sc3ncnc(Nc4ccc(Oc5ccc6ncnn6c5)c(Cl)c4)c23)C1 [Compound 5, (E)-1-(4-((4-([1,2,4]triazolo[1,5-a]pyridin-6-yloxy)-3-chlorophenyl)amino)-5,8-dihydropyrido[4′,3′:4,5]thieno[2,3-d]pyrimidin-7(6H)-yl)-4-(dimethylamino)but-2-en-1-one] |  |  | < 100 nM | < 100 nM |  | EC50 [1]: < 100 nM |
| Cc1ccc(Oc2ccc(Nc3ncnc4sc5c(c34)CCN(C(=O)/C=C/CN(C)C(C)(C)C)C5)cc2C)cn1 [Compound 33] | < 100 nM | < 100 nM | < 100 nM | < 100 nM | < 100 nM | EC50 [1]: < 100 nM |
| Cc1ccc(Oc2ccc(Nc3ncnc4sc5c(c34)CCN(C(=O)/C=C/CN3CCCOCC3)C5)cc2C)cn1 [Compound 42] | < 100 nM | < 100 nM | < 100 nM |  | < 100 nM |  |
| CCOC/C=C/C(=O)N1CCc2c(sc3ncnc(Nc4ccc(Oc5ccc(C)nc5)c(C)c4)c23)C1 [Compound 96, (E)-4-ethoxy-1-(4-((3-methyl-4-((6-methylpyridin-3-yl)oxy)phenyl)amino)-5,8-dihydropyrido[4′,3′:4,5]thieno[2,3-d]pyrimidin-7(6H)-yl)but-2-en-1-one] |  |  | < 100 nM |  |  |  |
| Cc1ccc(Oc2ccc(Nc3ncnc4[nH]c5c(c34)CN(C(=O)/C=C/CN(C)C)CC5)cc2C)cn1 [Compound 97, (E)-4-(dimethylamino)-1-(4-((3-methyl-4-((6-methylpyridin-3-yl)oxy)phenyl)amino)-5,7,8,9-tetrahydro-6H-pyrido[3′,4′:4,5]pyrrolo[2,3-d]pyrimidin-6-yl)but-2-en-1-one] |  |  | < 100 nM |  |  |  |
| Cc1ccc(Oc2ccc(Nc3ncnc4sc5c(c34)C(C)CN(C(=O)/C=C/CN(C)C)C5)cc2C)cn1 (centres unmarked) [Compound 98, (E)-4-(dimethylamino)-1-(5-methyl-4-((3-methyl-4-((6-methylpyridin-3-yl)oxy)phenyl)amino)-5,8-dihydropyrido[4′,3′:4,5]thieno[2,3-d]pyrimidin-7(6H)-yl)but-2-en-1-one] | < 100 nM | < 100 nM | < 100 nM | < 100 nM | < 100 nM |  |
| Cc1ccc(Oc2ccc(Nc3ncnc4sc5c(c34)CN(C(=O)/C=C/CN(C)C)C5)cc2C)cn1 [Compound 99, (E)-4-(dimethylamino)-1-(4-((3-methyl-4-((6-methylpyridin-3-yl)oxy)phenyl)amino)-5,7-dihydro-6H-pyrrolo[3′,4′:4,5]thieno[2,3-d]pyrimidin-6-yl)but-2-en-1-one] | < 100 nM | < 100 nM | < 100 nM |  | < 100 nM |  |
| Cc1ccc(Oc2ccc(Nc3ncnc4sc5c(c34)CCCN(C(=O)/C=C/CN(C)C)C5)cc2C)cn1 [Compound 101, (E)-4-(Dimethylamino)-1-(4-((3-methyl-4-((6-methylpyridin-3-yl)oxy)phenyl)amino)-6,7-dihydro-5H-pyrimido[5′,4′:4,5]thieno[2,3-c]azepin-8(9H)-yl)but-2-en-1-one] |  |  | < 100 nM |  |  |  |
| C=CC(=O)N1CCc2[nH]c3ncnc(Nc4ccc(Oc5ccc6ncnn6c5)c(C)c4)c3c2C1 [Compound 102, 1-(4-((4-([1,2,4]triazolo[1,5-a]pyridin-6-yloxy)-3-methylphenyl)amino)-5,7,8,9-tetrahydro-6H-pyrido[3′,4′:4,5]pyrrolo[2,3-d]pyrimidin-6-yl)prop-2-en-1-one] |  |  | < 100 nM |  |  |  |
| Cc1cc(Nc2ncnc3sc4c(c23)CN(C(=O)/C=C/CN(C)C)CC4)ccc1Oc1ccc2ncnn2c1 [Compound 103, (E)-1-(4-((4-([1,2,4]triazolo[1,5-a]pyridin-6-yloxy)-3-methylphenyl)amino)-7,8-dihydropyrido[3′,4′:4,5]thieno[2,3-d]pyrimidin-6(5H)-yl)-4-(dimethylamino)but-2-en-1-one] |  |  | < 100 nM |  |  |  |
| Cc1cc(Nc2ncnc3sc4c(c23)CCN(C(=O)/C=C/CN(C)C)C4)ccc1Oc1ccc2nonc2c1 [Compound 104, (E)-1-(4-((4-(Benzo[c][1,2,5]oxadiazol-5-yloxy)-3-methylphenyl)amino)-5,6-dihydropyrido[4′,3′:4,5]thieno[2,3-d]pyrimidin-7(8H)-yl)-4-(dimethylamino)but-2-en-1-one] |  |  | < 100 nM |  |  |  |
